Source: patent US6541619B1 (Daewoong Pharmaceutical Co., Ltd., priority 1997, dated 2003)

Assays:
yeast t-RNA = experiment: RNase activity on yeast t-RNA (OD 260 nm); type: biochemical; conditions: relative to angiogenin; 37° C., 2 hours
Method: 50 μl of sample containing a fusion protein was mixed with 50 μl of yeast t-RNA mixture containing reaction buffer composed of 120 mM HEPES, 120 mM NaCl, 0.004% BSA and incubated at 37° C. for 2 hours. Reaction was interrupted by an equal volume of 6% perchloric acid. Subsequently, the reaction mixture was centrifuged for 10 minutes and used to measure optical density at 260 nm from which the standard curve was made to measure RNase activity. Activities of the samples were compared with that of angiogenin(see: Table 2).

CHO-K1 cells = experiment: Cytotoxicity to CHO-K1 cells that do not express hEGF receptors (MTT); type: cell-based; conditions: CHO-K1, serum-free media, 2 days
Method: Cells were cultured on 96 well plates at 1×10^4 cells/ml for 1 day, and received serum-free media containing control and samples, and incubated for additional 2 days. Survival rate of the cells was measured with MTT, in an analogous manner as in Example 15(see: Table 4).

MCF-7 = experiment: Cytotoxicity to breast cancer cells in vitro (MTT); type: cell-based, human; conditions: MCF-7, serum-free media, 2 days
Method: In order to evaluate activity of the fusion protein in vitro, breast cancer cell line, MCF-7(ATCC-HTB22), was cultured in DMEM supplemented with 10% FBS. Cells were plated on 96-well plates at 1×10^4 cells/ml and cultured for 1 day. Medium was replaced with serum free-media containing control, sample, and 5-fluorouracil(for comparison) and cultured for 2 days, survival rate was measured with MTT(3-([…]-2-yl)-2,5-diphenyltetrazolium bromide), and IC50 was calculated(see: Table 3).

A431 tumor = experiment: Anticancer effect in vivo, A431 tumor transplanted in nude mouse
Method: To evaluate anticancer activity of the fusion protein in vivo, A431 cultured cells were transferred subcutaneously to the abdominal region of an immunodeficient nude mouse(20-25 g body weight) at 2×10^7 in 0.2 ml. When the proper size of tumor was formed, tumor was removed from the mouse under sterilization condition and cut into pieces of 2-3 mm to be transferred subcutaneously with a troca. When the size of the transplanted tumor of the nude mouse reached […], mice were divided into 5 groups(6 mice in one group) for i.v. injection. 100 μg/kg body weight of the fusion protein and angiogenin were administered by i.v. injection every 3 day for 4 weeks. After final administration, the area of the tumor-surface was measured by vernier calipers.
The tumor cells were excised after 4 weeks and measured for the weight(see: Table 5).

**Q.** Which “RNase Activity(%)” value (yeast t-RNA) does the source give for “hEGF-angiogenin: fusion protein of EGF-angiogenin expressed from pTE4083, SEQ ID No:19” here?
**A.** The value was 65-90%.

**Q.** “Angiogenin: human angiogenin, 14.4 kD protein consisting of 123 amino acids, ribonuclease superfamily, SEQ ID No:2” was tested. Which IC50 (CHO-K1 cells) did it give?
**A.** The IC50 was over 100 nM.

**Q.** What about the IC50 (MCF-7) of the same compound?
**A.** The IC50 was over 100 nM.

**Q.** What about the “RNase Activity(%)” value (yeast t-RNA) of the same compound?
**A.** Its value is 100%.

**Q.** What about the “Mean tumor-surface B (after 4 weeks)” value (A431 tumor; 100 μg/kg i.v. every 3 day for 4 weeks, after 4 weeks) of the same compound?
**A.** The value was 477.2 ± 6.7 mm^2.

**Q.** What about the “Mean tumor-surface A (on the day of administration)” value (A431 tumor; 100 μg/kg i.v. every 3 day for 4 weeks, day of administration) of the same compound?
**A.** Its value is 79.3 ± 2.1 mm^2.

**Q.** And the “Mean tumor-surface B/A” value (A431 tumor; ratio of surface after 4 weeks to day of administration)?
**A.** The value was 6.0.

**Q.** What about the Mean tumor weight (A431 tumor; tumor excised after 4 weeks, 100 μg/kg i.v. every 3 day) of the same compound?
**A.** Its Mean tumor weight is 5.0 ± 0.7 g.

**Q.** Which IC50 (CHO-K1 cells; Cricetulus griseus, 48 h) does the source give for O=c1[nH]cc(F)c(=O)[nH]1 [5-fluorouracil, reference compound] here?
**A.** Its IC50 is 49.5 nM.
